Article PMC6879560, “Functional annotation of serine hydrolases in the asexual erythrocytic stage of Plasmodium falciparum” (Scientific Reports, 2019)

Molecular target: T1, Prodrug activation and resistance esterase (PfPARE) (Plasmodium falciparum, UniProt Q8IBZ2)
T1 construct: gene PF3D7_0709700; native 37 kDa species in saponin-isolated parasite lysate; also confirmed with endogenous C-terminal YFP fusion
Assay: gel-based competitive ABPP with TAMRA-FP in parasite lysate; identity confirmed by YFP-tag shift
Type: biochemical

T1 sequence (Q8IBZ2 entry or part of it): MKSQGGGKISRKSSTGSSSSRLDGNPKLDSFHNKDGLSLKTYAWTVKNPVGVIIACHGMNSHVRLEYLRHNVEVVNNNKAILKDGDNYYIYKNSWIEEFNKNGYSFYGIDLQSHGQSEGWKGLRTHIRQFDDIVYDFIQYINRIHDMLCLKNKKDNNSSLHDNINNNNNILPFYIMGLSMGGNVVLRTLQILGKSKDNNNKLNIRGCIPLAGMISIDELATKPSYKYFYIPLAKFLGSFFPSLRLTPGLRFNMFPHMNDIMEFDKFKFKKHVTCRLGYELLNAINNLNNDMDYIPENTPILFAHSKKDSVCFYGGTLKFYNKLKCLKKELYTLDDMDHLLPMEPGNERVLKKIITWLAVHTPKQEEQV

`O=C(OC(C(F)(F)F)C(F)(F)F)N1CCN(Cc2cccc(Oc3ccccc3)c2)CC1` [JW642] gave an IC50 of 2.5 ± 0.6 nM.
